Laboratory results from ChEMBL document CHEMBL1140268, “Novel and potent cyclic cyanamide-based cathepsin K inhibitors” (Bioorg Med Chem Lett, 2005).

What was measured:
Cathepsin K = target: T1, Cathepsin K (Homo sapiens, UniProt P43235); assay: Inhibitory concentration against human cathepsin K using 10 uM Cbz-Phe-Arg-AMC
T1 sequence (P43235 whole entry): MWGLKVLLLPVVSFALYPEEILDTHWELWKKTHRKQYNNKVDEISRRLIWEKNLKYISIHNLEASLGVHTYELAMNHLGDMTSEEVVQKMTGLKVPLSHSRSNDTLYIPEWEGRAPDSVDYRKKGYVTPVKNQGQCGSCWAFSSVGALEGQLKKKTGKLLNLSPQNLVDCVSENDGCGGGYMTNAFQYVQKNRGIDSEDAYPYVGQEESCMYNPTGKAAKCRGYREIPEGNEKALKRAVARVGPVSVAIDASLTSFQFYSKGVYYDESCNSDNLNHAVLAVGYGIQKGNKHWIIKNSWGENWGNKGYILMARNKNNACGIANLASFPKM

Cathepsin B = Cathepsin B (Homo sapiens, UniProt P07858); assay: Inhibitory concentration against human cathepsin B using 10 uM Cbz-Phe-Arg-AMC
Pro-cathepsin H = target: T2, Pro-cathepsin H (Homo sapiens, UniProt P09668); assay: Inhibitory concentration against human cathepsin H using 50 uM L-Arg-beta-naphthalamide
T2 sequence (P09668 whole entry): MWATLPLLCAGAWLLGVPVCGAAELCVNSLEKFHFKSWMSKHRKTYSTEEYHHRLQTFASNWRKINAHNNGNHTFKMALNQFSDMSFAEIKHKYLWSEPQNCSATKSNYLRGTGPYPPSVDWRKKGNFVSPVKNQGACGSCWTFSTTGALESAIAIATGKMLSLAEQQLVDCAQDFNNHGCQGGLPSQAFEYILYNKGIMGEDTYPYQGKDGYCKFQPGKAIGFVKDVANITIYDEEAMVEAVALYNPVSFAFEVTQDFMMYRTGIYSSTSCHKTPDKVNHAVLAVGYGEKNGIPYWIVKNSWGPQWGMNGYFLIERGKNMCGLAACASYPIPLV

Procathepsin L = Procathepsin L (Homo sapiens, UniProt P07711); assay: Inhibitory concentration against human cathepsin L using 5 uM Cbz-Phe-Arg-AMC
Sequence of Procathepsin L (P07711 whole entry): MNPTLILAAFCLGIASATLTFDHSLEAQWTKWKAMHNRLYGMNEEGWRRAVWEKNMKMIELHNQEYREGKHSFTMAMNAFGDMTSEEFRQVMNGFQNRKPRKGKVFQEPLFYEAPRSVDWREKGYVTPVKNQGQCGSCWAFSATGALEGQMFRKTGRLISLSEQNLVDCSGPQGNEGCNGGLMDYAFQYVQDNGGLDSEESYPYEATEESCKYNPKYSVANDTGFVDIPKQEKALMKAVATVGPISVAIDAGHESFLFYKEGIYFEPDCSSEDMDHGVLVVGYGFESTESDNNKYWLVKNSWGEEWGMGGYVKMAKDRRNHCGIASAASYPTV

SMILES | IC50 (Cathepsin K) [nM] | IC50 (Cathepsin B) [nM] | IC50 (Pro-cathepsin H) [nM] | IC50 (Procathepsin L) [nM]
C[C@@H](CC1CCCCC1)OC(=O)C1CCN1C#N (stereo not given in full) | 0.048 | 2.4 | 40 | 0.71
CC(C)(C)OC(=O)[C@@H]1CCCN1C#N | 60 | – | – | –
N#CN1CCCC1 [CYANO-PYRROLIDINE] | 2100 | – | – | –
CC(C)(C)NC(=O)[C@H]1CCCN1C#N | 8100 | – | – | –
C[C@@H](CC1CCCCC1)OC(=O)N[C@H]1CCN(C#N)C1 | 12 | 680 | 8300 | 81
CC(C)(C)OC(=O)[C@@H]1CCCCN1C#N | > 13000 | – | – | –
CC(C)(C)OC(=O)N[C@H]1CCN(C#N)C1 | 81 | – | – | –
CC(C)(C)OC(=O)N[C@@H]1CCN(C#N)C1 | 200 | – | – | –
CC(C)(C)OC(=O)[C@H]1CCCN1C#N | 300 | – | – | –
CN(C(=O)[C@H]1CCCN1C#N)C(C)(C)C | > 13000 | – | – | –
CC(C)(C)OC(=O)N1CCCN1C#N | 380 | – | – | –
CC[C@@H](CC1CCCCC1)OC(=O)NC1CCN(C#N)C1 (stereo not given in full) | 8.9 | – | – | –
C[C@@H](CC1CCCCC1)OC(=O)C1CCCN1C#N (stereo not given in full) | 1.8 | 310 | 580 | 130
CC[C@@H](CC1CCCCC1)OC(=O)N1CCC(NC#N)C1 (stereo not given in full) | 200 | – | – | –
COC(=O)[C@@H]1CN(C#N)C[C@H]1c1ccc(OC)c(OC2CCCC2)c1 | 430 | – | – | –
CCCC[C@H](C=O)NC(=O)OC(C)(C)C | 51 | – | – | –
